Reference: US20130158035A1, “[…] COMPOUNDS” (Brigham Young University, priority 2010, published 2013)

System: MDCK cells
Assay: HGF-induced epithelial-mesenchymal transition / migration of MDCK cells on transwell filters (crystal violet densitometry)
Format: cell-based
Conditions: Canis lupus familiaris, MDCK, 24 h, Table 3, 10 μM compound, then HGF, percentage like untreated controls (unstimulated cells = maximal effect, HGF only = nil)
Protocol: MDCK cells were seeded at confluency into the wells of a transwell filter in DMEM with 10% fetal bovine serum. Cells were cultured for 24 hours. Test compounds, dissolved in DMSO, were added to each test well to a 10 μM final concentration, and then hepatocyte growth factor (HGF) was then added. The MDCK cells were cultured for 24 hours. Concurrently, controls treated with and without HGF and with no test compounds were also prepared.
After post-HGF addition culturing, transwell filters were prepared by repeated washing using ice cold PBS. The cells were then fixed with paraformaldehyde (3.7%) on ice for 15 minutes to the filters. After fixation, the transwell filters were washed repeatedly with PBS followed by staining with crystal violet for 15 minutes. The transwell filters were washed again with distilled water.
The upper surface of the transwell filters were swabbed using a cotton-tipped probe. The filters were photographed using a gel documentation system. Densitometry measurements were made on the test samples and compared with control samples.

SMILES | inhibition at 10 µM [%]
NC(=O)c1ccccc1/N=C/c1ccccc1[N+](=O)[O-] [Compound A-7] | 11.7
COc1cc(CNc2ccc(C)c(Cl)c2)cc(Br)c1OC [Compound A-19] | > 5
Cc1ccc(/C=N/c2ccccc2C(N)=O)s1 [Compound A-10] | 91.8
NC(=O)c1ccccc1/N=C/c1ccco1 [Compound A-11] | 27.9

Same assay, conditions: Canis lupus familiaris, MDCK, 24 h, Table 4, 10 μM compound, then HGF, percentage like untreated controls (unstimulated cells = maximal effect, HGF only = nil)

SMILES | inhibition at 10 µM [%]
O=C(Nc1ncc(Br)cc1Br)c1cccc([N+](=O)[O-])c1 [Compound B-12] | 42.4
Cc1nc(NC(=O)c2cccc([N+](=O)[O-])c2)ccc1Br [Compound B-6] | 88.6
COc1ccc(C(=O)Nc2cccc(C)n2)cc1[N+](=O)[O-] [Compound B-11] | < 5
CCOc1ccc(C(=O)Nc2cccc(C)n2)cc1[N+](=O)[O-] [Compound B-9] | 34.6
Cc1cc(C)nc(NC(=O)c2cccc([N+](=O)[O-])c2)c1 [Compound B-7] | 52.5

Same assay, conditions: Canis lupus familiaris, MDCK, 24 h, Table 5, 10 μM compound, then HGF, percentage like untreated controls (unstimulated cells = maximal effect, HGF only = nil)

SMILES | inhibition at 10 µM [%]
Cc1cc(C)cc(NS(=O)(=O)c2cccc([N+](=O)[O-])c2)c1 [Compound B-37] | 79.9
O=C(Nc1cccc(C(=O)N2CCOCC2)c1)c1ccc(-c2ccccc2)cc1 [Compound B-21] | 27.2
Cc1cc(NC(=O)c2cccc([N+](=O)[O-])c2)ccc1I [Compound B-31] | 53.1
CCC(=O)Nc1ccc(NC(=O)c2cc(OC)c(OC)c(OC)c2)cc1 [Compound B-23] | 29.4
COc1cc(C(=O)Nc2ccc(Nc3ccccc3)cc2)cc(OC)c1OC [Compound B-27] | 13.7
COc1ccc(C(=O)c2cc([N+](=O)[O-])ccc2N2CCOCC2)cc1 [Compound B-34] | 93.4
CCN1CCN(c2ccc(NC(=O)c3cc(OC)c(OC)c(OC)c3)cc2Cl)CC1 [Compound B-26] | > 5
O=[N+]([O-])c1cccc(S(=O)(=O)Nc2ccc(I)cc2)c1 [Compound B-39] | 89.3
Cc1cc(C)c(NS(=O)(=O)c2cccc([N+](=O)[O-])c2)c(C)c1 [Compound B-38] | 100
Cc1cccc(NC(=O)c2ccc(-c3ccccc3)cc2)c1 [Compound B-17] | 30.2
O=C(Nc1cccc(C(=O)c2ccccc2)c1)c1ccc(-c2ccccc2)cc1 [Compound B-18] | 93.8
Cc1cc(NC(=O)c2ccc(C)c([N+](=O)[O-])c2)c(C)cc1I [Compound B-33] | 56.9

Same assay, conditions: Canis lupus familiaris, MDCK, 24 h, Table 6, 10 μM compound, then HGF, percentage like untreated controls (unstimulated cells = maximal effect, HGF only = nil)

SMILES | inhibition at 10 µM [%]
CCOC(=O)c1[nH]c2c(c1C)C(=O)CC(c1cccs1)C2 (stereo not drawn) [Compound C-2] | 49.7
Cc1c(C(=O)OC2CCCC2C)[nH]c2c1C(=O)CC(c1cccs1)C2 (stereo not drawn) [Compound C-18] | 92.2
Cc1c(C(=O)OC(C)C)[nH]c2c1C(=O)CC(c1cccs1)C2 (stereo not drawn) [Compound C-7] | 35.9
Cc1c(C(=O)OC2CCCC2)[nH]c2c1C(=O)CC(c1ccco1)C2 (stereo not drawn) [Compound C-14] | < 5
CCOC(=O)c1[nH]c2c(c1C)C(=O)CC(c1cccc(OC)c1)C2 (stereo not drawn) [Compound C-1] | 96

Same assay, conditions: Table 1; 10 μM compound, then HGF, 24 hours; percentage like untreated controls (unstimulated cells = maximal effect, HGF only = nil)

SMILES | Assay Value [%]
O=C1CC(c2cc(Br)ccc2F)c2cc3c(cc2N1)CCC3 (stereo not drawn) [Compound 4] | 36.1
Cc1ccc(C)c(C2CC(=O)Nc3cc4c(cc32)OCCO4)c1 (stereo not drawn) [Compound 14] | 8.8
O=C1CC(c2cccc(O)c2)c2cc3c(cc2N1)OCCO3 (stereo not drawn) [Compound 19] | 7.8
COc1ccc(C2CC(=O)Nc3cc4c(cc32)OCCO4)cc1 (stereo not drawn) [Compound 24] | 100
O=C1CC(c2cc3c(cc2Cl)OCO3)c2cc3c(cc2N1)OCCO3 (stereo not drawn) [Compound 20] | 5.9
O=C1CC(c2cccc3ccccc23)c2cc3c(cc2N1)OCCO3 (stereo not drawn) [Compound 7] | 17.1
COc1ccc(OC)c(C2CC(=O)Nc3cc4c(cc32)OCCO4)c1 (stereo not drawn) [Compound 16] | 15.1
O=C1CC(c2cc(Br)ccc2F)c2cc3c(cc2N1)OCCO3 (stereo not drawn) [Compound 11] | 27.9
COc1cccc(C2CC(=O)Nc3cc4c(cc32)CCC4)c1OC (stereo not drawn) [Compound 26] | 90.4
COc1cc(C2CC(=O)Nc3cc4c(cc32)OCCO4)cc(OC)c1O (stereo not drawn) [Compound 32] | 88.2
COc1ccc(Cl)cc1C1CC(=O)Nc2cc3c(cc21)OCCO3 (stereo not drawn) [Compound 10] | 62.9
COc1cc2c(cc1OC)C(c1cccc(Cl)c1Cl)CC(=O)N2 (stereo not drawn) [Compound 13] | >5
COc1cccc(C2CC(=O)Nc3cc4c(cc32)OCCO4)c1 (stereo not drawn) [Compound 17] | 10.7
O=C1CC(c2cc(F)ccc2F)c2cc3c(cc2N1)CCC3 (stereo not drawn) [Compound 2] | 90.3
COc1ccc(OC)c(C2CC(=O)Nc3cc(OC)c(OC)c(OC)c32)c1 (stereo not drawn) [Compound 30] | 52.3
COc1cccc(C2CC(=O)Nc3cc4c(cc32)CCC4)c1 (stereo not drawn) [Compound 29] | 69.3

Same assay, conditions: Table 2; 10 μM compound, then HGF, 24 hours; percentage like untreated controls (unstimulated cells = maximal effect, HGF only = nil)

SMILES | Assay Value [%]
CCOc1ccc(C2CC(=O)Nc3cc4c(cc32)OCO4)cc1 (stereo not drawn) [Compound 81] | <5
O=C1CC(c2cc3c(cc2[N+](=O)[O-])OCO3)c2cc3c(cc2N1)CCC3 (stereo not drawn) [Compound 93] | <5
COc1cc2c(cc1OC)C(c1ccc(Cl)cc1Cl)CC(=O)N2 (stereo not drawn) [Compound 49] | <5
COc1cc2c(cc1OC)C(c1cc(Br)c(OC)c(OC)c1)CC(=O)N2 (stereo not drawn) [Compound 52] | <5
O=C1CC(c2ccc([N+](=O)[O-])cc2)c2cc3c(cc2N1)OCCO3 (stereo not drawn) [Compound 53] | <5
CCOc1ccc(C2CC(=O)Nc3cc4c(cc32)OCCO4)cc1OC (stereo not drawn) [Compound 63] | <5
O=C1CC(c2cccc(F)c2F)c2cc3c(cc2N1)OCO3 (stereo not drawn) [Compound 75] | <5
COc1cccc(C2CC(=O)Nc3cc4c(cc32)CCC4)c1 (stereo not drawn) [Compound 99] | <5
COc1ccccc1C1CC(=O)Nc2cc3c(cc21)OCCO3 (stereo not drawn) [Compound 38] | <5
CCCOc1ccc(C2CC(=O)Nc3cc(OC)c(OC)cc32)cc1 (stereo not drawn) [Compound 43] | <5
O=C1CC(c2cc3c(cc2[N+](=O)[O-])OCO3)c2cc3c(cc2N1)CCC3 (stereo not drawn) [Compound 91] | <5
CCOc1ccccc1C1CC(=O)Nc2cc(OC)c(OC)cc21 (stereo not drawn) [Compound 61] | <5
O=C1CC(c2ccc(O)cc2)c2cc3c(cc2N1)OCO3 (stereo not drawn) [Compound 76] | <5
CC(C)c1ccc(C2CC(=O)Nc3cc4c(cc32)OCCO4)cc1 (stereo not drawn) [Compound 79] | <5
COc1cc2c(cc1OC)C(c1cc(OC)c(OC)cc1OC)CC(=O)N2 (stereo not drawn) [Compound 65] | <5
CCOc1ccccc1C1CC(=O)Nc2cc(C)c(C)cc21 (stereo not drawn) [Compound 33] | <5
COc1cc(Br)c(C2CC(=O)Nc3cc(OC)c(OC)cc32)cc1OC (stereo not drawn) [Compound 48] | <5
Cc1ccc(C)c(C2CC(=O)Nc3cc4c(cc32)OCO4)c1 (stereo not drawn) [Compound 83] | <5
O=C1CC(c2cc(F)cc(F)c2)c2cc3c(cc2N1)OCO3 (stereo not drawn) [Compound 77] | <5
COc1cc2c(cc1OC)C(c1cccc(OCc3ccccc3)c1)CC(=O)N2 (stereo not drawn) [Compound 60] | <5
O=C1CC(c2ccc(F)cc2)c2cc3c(cc2N1)OCCO3 (stereo not drawn) [Compound 62] | <5
CN(C)c1ccc(C2CC(=O)Nc3cc4c(cc32)OCO4)cc1 (stereo not drawn) [Compound 80] | <5
COc1cc2c(cc1OC)C(c1ccccc1C)CC(=O)N2 (stereo not drawn) [Compound 40] | <5

Same assay, conditions: Table 3; 10 μM compound, then HGF, 24 hours; percentage like untreated controls (unstimulated cells = maximal effect, HGF only = nil)

SMILES | Assay Value [%]
C#CCOc1c(Br)cc(CNc2ccc(Cl)c(Cl)c2)cc1OC [Compound A-24] | 16.3

Same assay, conditions: Table 4; 10 μM compound, then HGF, 24 hours; percentage like untreated controls (unstimulated cells = maximal effect, HGF only = nil)

SMILES | Assay Value [%]
Cc1nc(NC(=O)COc2ccc([N+](=O)[O-])cc2)ccc1Br [Compound B-1] | 97.1
Cc1nc(NC(=O)c2ccc(N3CCOCC3)c([N+](=O)[O-])c2)ccc1I [Compound B-13] | 29.4

Same assay, conditions: Table 5; 10 μM compound, then HGF, 24 hours; percentage like untreated controls (unstimulated cells = maximal effect, HGF only = nil)

SMILES | Assay Value [%]
Cc1cc(NC(=O)c2cccc([N+](=O)[O-])c2)ccc1O [Compound B-14] | 34.6
